Source: doi:10.1101/2022.08.09.503277v2 (biorxiv, 2022)

Molecular target: ECD-AT1G56145 (IGP1) (Arabidopsis thaliana, UniProt F4I3K3)
Assay: isothermal titration calorimetry
Format: binding
Conditions: 20 mM sodium citrate pH 5.0, 150 mM NaCl, 25 °C; single site, N fixed to 1

Row | Structure (SMILES) | Kd [nM]
1 | OC[C@H]1O[C@@H](O[C@H]2[C@H](O)[C@@H](O)[C@H](O[C@H]3[C@H](O)[C@@H](O)C(O)O[C@@H]3CO)O[C@@H]2CO)[C@H](O)[C@@H](O)[C@@H]1O (some centres unmarked) [CEL3] | 1190 ± 30
2 | OC[C@H]1O[C@@H](O[C@H]2[C@H](O)[C@@H](O)[C@H](O[C@H]3[C@H](O)[C@@H](O)[C@H](O[C@H]4[C@H](O)[C@@H](O)[C@H](O[C@H]5[C@H](O)[C@@H](O)C(O)O[C@@H]5CO)O[C@@H]4CO)O[C@@H]3CO)O[C@@H]2CO)[C@H](O)[C@@H](O)[C@@H]1O (some centres unmarked) [CEL5] | 1400 ± 10
